The text below walks through data of patent EP4740948A1 (Dong Wha Pharm. Co., Ltd., priority 2023, dated 2025).

One assay concerns the target EZH2 (Homo sapiens, UniProt Q15910). The assay is described as follows: AlphaLISA enzyme activity inhibition, EZH2. The class given is biochemical. The following applies: for inhibition at 0.005 µM: 5nM test substance; for inhibition at 0.01 µM: 10nM test substance. A digest of the protocol:
(§1)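 EZH1 or EZH2 was mixed with compound at 5 nM or 10 nM final in 20 mM Tris pH 8.0, 0.1% BSA, 0.5 mM DTT, then histone H3 peptide and SAM were added. After 2 h reaction, AlphaLISA acceptor and donor beads detected methylation; inhibition rate was calculated against DMSO control.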
On the technique in general: In Alpha technology, singlet oxygen from a donor bead excites a nearby acceptor bead.

For another assay, the system named is Lovo cells. Nature of the assay: Cancer cell proliferation inhibition (Cell Counting Kit-8), colorectal cancer cell line. It is filed as cell-based. To be noted: 1000 nM, cultured seven to 11 days; for inhibition at 1 µM: Homo sapiens, LoVo, 264 h, read-out: % inhibition rate LoVo; for % inhibition rate LoVo: 1 µM. The essentials: (§2)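 Cells seeded at 100-1,000/well in medium with 10% FBS and treated with 1000 nM test substance for 7-11 days. Viability measured with Cell Counting Kit-8; % inhibition = {1−(test/control)} × 100.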
A general note: Tetrazolium dyes change colour on reduction, which living cells bring about.

The subject of another assay is SW-13 cells. The assay is described as follows: Cancer cell proliferation inhibition (Cell Counting Kit-8), adrenal cancer cell line. It is filed as cell-based. To be noted: Homo sapiens, SW13, 264 h, 1000 nM, cultured seven to 11 days; read-out: % inhibition rate SW-13. A digest of the protocol: as §2
The next assay relates to G401 cells. Nature of the assay: Cancer cell proliferation inhibition (Cell Counting Kit-8), rhabdoid tumor cell line. It is filed as cell-based. To be noted: 1000 nM, cultured seven to 11 days; 1 µM. The essentials:
(§3)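 Cells grown in RPMI1640, McCoy's 5a, L-15 or DMEM with 10% FBS, seeded at 100 to 1,000 cells/well and treated with test substance at 1000 nM for 7 to 11 days. Viability read by CCK-8; % inhibition = {1−(test/control)} × 100.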

Another assay relates to MKN-45 cells. Nature of the assay: Cancer cell proliferation inhibition (Cell Counting Kit-8), gastric cancer cell line. It is filed as cell-based. To be noted: Homo sapiens, MKN-45, 264 h, 1000 nM, cultured seven to 11 days; read-out: % inhibition rate MKN -45. A digest of the protocol:
as §3

The next assay concerns the target EZH1 (Homo sapiens, UniProt Q92800). Nature of the assay: AlphaLISA enzyme activity inhibition, EZH1. The class given is biochemical. A digest of the protocol: as §1
A further assay concerns NCI-H1299 cells. The assay is described as follows: Cancer cell proliferation inhibition (Cell Counting Kit-8), lung cancer cell line. The class given is cell-based. The following applies: Homo sapiens, NCI-H1299, 264 h, 1000 nM, cultured seven to 11 days; read-out: % inhibition rate NCI-H129 9. A digest of the protocol:
as §2

The next assay has as its system MIA-PaCa-2 cells. Nature of the assay: Cancer cell proliferation inhibition (Cell Counting Kit-8), pancreatic cancer cell line. It is filed as cell-based. To be noted: Homo sapiens, MIA PaCa-2, 264 h, 1000 nM, cultured seven to 11 days; read-out: % inhibition rate MIA-Paca2. The essentials:
as §2

Sequence of EZH1 (Q92800 whole entry, species assumed): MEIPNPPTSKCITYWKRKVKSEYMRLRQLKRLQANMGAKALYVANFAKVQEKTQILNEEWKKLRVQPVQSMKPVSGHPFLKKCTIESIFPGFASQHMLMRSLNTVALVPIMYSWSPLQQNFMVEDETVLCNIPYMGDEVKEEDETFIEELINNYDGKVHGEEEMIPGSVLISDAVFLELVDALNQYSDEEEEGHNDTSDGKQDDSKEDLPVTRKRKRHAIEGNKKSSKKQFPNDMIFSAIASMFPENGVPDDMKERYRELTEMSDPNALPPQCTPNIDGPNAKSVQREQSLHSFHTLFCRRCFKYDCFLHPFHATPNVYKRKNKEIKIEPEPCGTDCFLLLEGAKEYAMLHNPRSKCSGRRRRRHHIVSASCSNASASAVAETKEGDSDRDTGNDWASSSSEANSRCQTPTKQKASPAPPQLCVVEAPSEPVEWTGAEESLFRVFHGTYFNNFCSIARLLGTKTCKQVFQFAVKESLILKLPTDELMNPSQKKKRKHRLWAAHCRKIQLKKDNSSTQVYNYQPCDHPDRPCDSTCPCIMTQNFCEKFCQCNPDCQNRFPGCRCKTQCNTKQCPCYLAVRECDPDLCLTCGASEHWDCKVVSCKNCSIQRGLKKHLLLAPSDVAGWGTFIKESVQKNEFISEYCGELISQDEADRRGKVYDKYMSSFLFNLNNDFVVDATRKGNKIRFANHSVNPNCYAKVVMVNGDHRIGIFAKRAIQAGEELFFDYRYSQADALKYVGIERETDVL
Sequence of EZH1 (O75530 whole entry partner, species assumed): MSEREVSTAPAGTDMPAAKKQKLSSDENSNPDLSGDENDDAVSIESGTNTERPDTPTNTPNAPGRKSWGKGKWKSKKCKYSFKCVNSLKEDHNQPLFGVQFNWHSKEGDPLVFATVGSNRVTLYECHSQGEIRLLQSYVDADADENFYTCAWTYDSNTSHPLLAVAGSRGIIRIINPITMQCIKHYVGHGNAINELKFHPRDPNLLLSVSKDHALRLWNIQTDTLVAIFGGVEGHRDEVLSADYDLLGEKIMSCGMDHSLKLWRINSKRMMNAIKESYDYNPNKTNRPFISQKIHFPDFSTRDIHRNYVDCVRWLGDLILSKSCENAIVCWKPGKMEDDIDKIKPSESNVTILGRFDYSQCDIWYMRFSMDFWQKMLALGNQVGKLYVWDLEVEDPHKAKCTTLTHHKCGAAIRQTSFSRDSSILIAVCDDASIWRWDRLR
Sequence of EZH1 (Q15022 whole entry partner, species assumed): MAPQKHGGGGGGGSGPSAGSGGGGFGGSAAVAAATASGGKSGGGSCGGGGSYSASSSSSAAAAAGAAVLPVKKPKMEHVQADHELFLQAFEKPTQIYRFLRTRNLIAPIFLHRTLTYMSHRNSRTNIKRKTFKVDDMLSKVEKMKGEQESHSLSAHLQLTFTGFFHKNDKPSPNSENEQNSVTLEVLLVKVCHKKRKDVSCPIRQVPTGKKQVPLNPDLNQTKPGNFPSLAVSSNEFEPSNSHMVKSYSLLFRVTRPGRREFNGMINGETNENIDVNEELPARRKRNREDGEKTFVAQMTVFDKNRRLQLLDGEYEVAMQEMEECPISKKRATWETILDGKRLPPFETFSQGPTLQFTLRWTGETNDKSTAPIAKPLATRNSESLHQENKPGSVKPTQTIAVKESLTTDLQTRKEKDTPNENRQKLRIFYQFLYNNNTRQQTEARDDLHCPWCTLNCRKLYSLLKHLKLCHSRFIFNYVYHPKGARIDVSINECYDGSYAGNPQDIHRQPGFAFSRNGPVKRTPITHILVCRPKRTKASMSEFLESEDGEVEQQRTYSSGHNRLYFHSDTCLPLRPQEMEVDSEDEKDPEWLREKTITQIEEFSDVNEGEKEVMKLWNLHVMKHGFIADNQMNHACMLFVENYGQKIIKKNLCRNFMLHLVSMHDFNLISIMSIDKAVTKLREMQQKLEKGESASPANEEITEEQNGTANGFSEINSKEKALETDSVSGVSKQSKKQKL
Sequence of EZH2 (Q15910 whole entry, species assumed): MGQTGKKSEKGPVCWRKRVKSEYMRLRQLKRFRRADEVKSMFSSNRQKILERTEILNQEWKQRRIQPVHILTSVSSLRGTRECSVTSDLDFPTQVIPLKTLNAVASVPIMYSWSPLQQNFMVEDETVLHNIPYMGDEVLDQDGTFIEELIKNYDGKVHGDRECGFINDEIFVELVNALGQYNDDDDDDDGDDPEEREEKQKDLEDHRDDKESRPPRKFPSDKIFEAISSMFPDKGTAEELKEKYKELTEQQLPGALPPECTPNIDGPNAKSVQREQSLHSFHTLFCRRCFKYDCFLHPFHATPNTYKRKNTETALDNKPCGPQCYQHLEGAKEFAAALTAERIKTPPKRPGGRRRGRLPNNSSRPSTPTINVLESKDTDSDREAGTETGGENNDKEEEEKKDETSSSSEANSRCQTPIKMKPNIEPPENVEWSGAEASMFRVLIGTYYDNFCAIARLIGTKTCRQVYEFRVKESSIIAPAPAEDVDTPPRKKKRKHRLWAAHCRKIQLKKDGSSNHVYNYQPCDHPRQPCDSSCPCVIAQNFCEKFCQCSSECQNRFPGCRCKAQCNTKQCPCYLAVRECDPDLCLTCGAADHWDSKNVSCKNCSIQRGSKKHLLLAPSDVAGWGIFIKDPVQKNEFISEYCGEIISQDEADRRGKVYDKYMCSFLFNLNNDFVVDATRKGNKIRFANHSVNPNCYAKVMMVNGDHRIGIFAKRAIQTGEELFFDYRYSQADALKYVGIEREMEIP
Sequence of EZH2 (O75530 whole entry partner, species assumed): as the sequence (O75530 whole entry partner, species assumed) above
Sequence of EZH2 (Q15022 whole entry partner, species assumed): as the sequence (Q15022 whole entry partner, species assumed) above

For the compound `CSc1cc(C)[nH]c(=O)c1CNC(=O)c1cc(-c2ccc(N3C[C@@H](C)O[C@@H](C)C3)nc2)c2c(c1C)OC(C)(C1CCN(C(=O)C(F)(F)F)CC1)O2` (single isomer, unassigned) [Compound 59], the inhibition (as a rule, the share of the control response that was lost under treatment) at 0.005 µM amounted to 98.5% against EZH2 and 42.2% against EZH1 (5nM test substance). Also, the inhibition at 0.01 µM is 99.5% against EZH2 and 5.7% against EZH1 (10nM test substance). Also, the inhibition at 1 µM in the assay on Lovo cells is at least 70%; with SW-13 cells, 30 to 70%; in the assay on MKN-45 cells, 30 to 70%; in the assay on NCI-H1299 cells it was 30 to 70%; in the assay with MIA-PaCa-2 cells it was at most 30%. In addition, the “% inhibition rate G401” value in the assay on G401 cells is listed as “+++ (+++: ≥70%)”.

In the case of `CSc1cc(C)[nH]c(=O)c1CNC(=O)c1cc(-c2ccc(N3CCOCC3)nc2)c2c(c1C)OC(C)(C1CCN(CC(F)(F)F)CC1)O2` (single isomer, unassigned) [Compound 62, 2,4-dimethyl-N-((6-methyl-4-(methylthio)-2-oxo-1,2-dihydropyridin-3-yl)methyl)-7-(6-morpholinopyridin-3-yl)-2-(1-(2,2,2-trifluoro)piperidin-4-yl)benzo[d][1,3]dioxole-5-carboxamide], the inhibition at 0.005 µM amounted to 93.6% against EZH2 and 66.9% against EZH1 (5nM test substance). Also, the inhibition at 0.01 µM came out at 99.4% on EZH2 and 81.8% on EZH1 (10nM test substance). The “% inhibition rate LoVo” value in the assay on Lovo cells is on record as “+++ (+++: ≥70%)”. Also, the inhibition at 1 µM in the assay on SW-13 cells is 30 to 70%; with MKN-45 cells it was 30 to 70%; in the assay on NCI-H1299 cells, 30 to 70%; with MIA-PaCa-2 cells it was at most 30%. The “% inhibition rate G401” value in the assay with G401 cells is listed as “+++ (+++: ≥70%)”.

Turning to `CSc1cc(C)[nH]c(=O)c1CNC(=O)c1cc(-c2ccc(N3CCOCC3)nc2)c2c(c1C)OC(C)(C1CCN(CC(F)F)CC1)O2` (single isomer, unassigned) [Compound 64, 2-(1-(2,2-difluoroethyl)piperidin-4-yl)-2,4-dimethyl-N-((6-methyl-4-(methylthio)-2-oxo-1,2-dihydropyridin-3-yl)methyl)-7-(6-morpholinopyridin-3-yl)benzo[d][1,3]dioxole-5-carboxamide], the inhibition at 0.005 µM on EZH2 amounted to 99.2%; against EZH1 (5nM test substance) it was 82.5%. The inhibition at 0.01 µM was 99.6% on EZH2 and 90.5% against EZH1 (10nM test substance). In the assay with Lovo cells, the “% inhibition rate LoVo” value is “+++ (+++: ≥70%)”. Moreover, the inhibition at 1 µM was 30 to 70% in the assay with SW-13 cells, 30 to 70% in the assay with MKN-45 cells, at most 30% with NCI-H1299 cells and at most 30% in the assay with MIA-PaCa-2 cells. Besides, the “% inhibition rate G401” value with G401 cells was “+++ (+++: ≥70%)”.

In the case of `CCN1CCC(C2(C)Oc3c(-c4ccc(N5CCOCC5)nc4)cc(C(=O)NCc4c(SC)cc(C)[nH]c4=O)c(C)c3O2)CC1` (single isomer, unassigned) [Compound 66, 2-(1-ethylpiperidin-4-yl)-2,4-dimethyl-N-((6-methyl-4-(methylthio)-2-oxo-1,2-dihydropyridin-3-yl)methyl)-7-(6-morpholinopyridin-3-yl)benzo[d][1,3]dioxole-5-carboxamide], the inhibition at 0.005 µM at EZH2 is 99.3%; against EZH1 (5nM test substance) it was 81.3%. Further, the figures for the inhibition at 0.01 µM at EZH2 and against EZH1 (10nM test substance) were 99.6% and 90.9%, respectively. For the same compound, the inhibition at 1 µM in the assay on Lovo cells was 30 to 70%; in the assay on SW-13 cells it was at most 30%; with MKN-45 cells, 30 to 70%; with NCI-H1299 cells it was at most 30%; with MIA-PaCa-2 cells, at most 30%. For the same compound, in the assay with G401 cells, the “% inhibition rate G401” value is on record as “+++ (+++: ≥70%)”.

Turning to `CSc1cc(C)[nH]c(=O)c1CNC(=O)c1cc(-c2cnc(N3CCOCC3)nc2)c2c(c1C)OC(C)(C1CCN(CC(F)(F)F)CC1)O2` (single isomer, unassigned) [Compound 69, 2,4-dimethyl-N-((6-methyl-4-(methylthio)-2-oxo-1,2-dihydropyridin-3-yl)methyl)-7-(2-morpholinopyrimidine-5-yl)-2-(1-(2,2,2-trifluoro)piperidin-4-yl)benzo [d][1,3]dioxole-5-carboxamide], the inhibition at 0.005 µM on EZH2 is 98.2%; at EZH1 (5nM test substance), 71.9%. In addition, the inhibition at 0.01 µM was 99.6% against EZH2 and 87.9% against EZH1 (10nM test substance). The inhibition at 1 µM was at least 70% in the assay with Lovo cells; 30 to 70% with SW-13 cells; 30 to 70% with MKN-45 cells; at most 30% with NCI-H1299 cells; at most 30% with MIA-PaCa-2 cells. Besides, the “% inhibition rate G401” value in the assay with G401 cells is “+++ (+++: ≥70%)”.

With `CSc1cc(C)[nH]c(=O)c1CNC(=O)c1cc(-c2cnc(N3CCOCC3)nc2)c2c(c1C)OC(C)(C1CCN(CC(F)F)CC1)O2` (single isomer, unassigned) [Compound 71, 2-(1-(2,2-difluoroethyl)piperidin-4-yl)-2,4-dimethyl-N-((6-methyl-4-(methylthio)-2-oxo-1,2-dihydropyridin-3-yl)methyl)-7-(2-morpholinopyrimidin-5-yl)benzo[d][1,3]dioxole-5-carboxamide], the inhibition at 0.005 µM was found to be 96.1% at EZH2 and 68.5% against EZH1 (5nM test substance). Further, the inhibition at 0.01 µM was determined as 99.5% at EZH2 and 82.8% on EZH1 (10nM test substance). For the same compound, the inhibition at 1 µM is at least 70% in the assay on Lovo cells; 30 to 70% with SW-13 cells; 30 to 70% with MKN-45 cells; 30 to 70% with NCI-H1299 cells; at most 30% in the assay on MIA-PaCa-2 cells. Also, in the assay with G401 cells, the “% inhibition rate G401” value is recorded as “+++ (+++: ≥70%)”.

Regarding `CCN1CCC(C2(C)Oc3c(-c4cnc(N5CCOCC5)nc4)cc(C(=O)NCc4c(SC)cc(C)[nH]c4=O)c(C)c3O2)CC1` (single isomer, unassigned) [Compound 73, 2-(1-ethylpiperidin-4-yl)-2,4-dimethyl-N-((6-methyl-4-(methylthio)-2-oxo-1,2-dihydropyridin-3-yl)methyl)-7-(2-morpholinopyrimidin-5-yl)benzo[d][1,3]dioxole-5-carboxamide], the inhibition at 0.005 µM stood at 99.2% at EZH2 and 75.7% at EZH1 (5nM test substance). Further, the inhibition at 0.01 µM against EZH2 was determined as 99.5%; on EZH1 (10nM test substance), 88%. Further, the inhibition at 1 µM in the assay on Lovo cells was 30 to 70%; in the assay with SW-13 cells, 30 to 70%; in the assay with MKN-45 cells, 30 to 70%; in the assay on NCI-H1299 cells it was at most 30%; in the assay on MIA-PaCa-2 cells, at most 30%. Besides, in the assay with G401 cells, the “% inhibition rate G401” value is listed as “+++ (+++: ≥70%)”.

As for `CCN1CCN(c2ncc(-c3cc(C(=O)NCc4c(SC)cc(C)[nH]c4=O)c(C)c4c3OC(C)(C3CCN(CC(F)(F)F)CC3)O4)cn2)CC1` (single isomer, unassigned) [Compound 76, 7-(2-(4-ethylpiperazin-1-yl)pyrimidin-5-yl)-2,4-dimethyl-N-((6-methyl-4-(methylthio)-2-oxo-1,2-dihydropyridin-3-yl)methyl)-2-(1-(2,2,2-trifluoroethyl)piperidin-4-yl)benzo[d][1,3]dioxole-5-carboxamide], the inhibition at 0.005 µM turned out to be 99.5% at EZH2 and 79% on EZH1 (5nM test substance). Moreover, the inhibition at 0.01 µM against EZH2 is 99.6%; at EZH1 (10nM test substance) it was 96.2%. Also, in the assay with Lovo cells, the “% inhibition rate LoVo” value is on record as “+++ (+++: ≥70%)”. For the same compound, the inhibition at 1 µM was 30 to 70% in the assay with SW-13 cells, 30 to 70% in the assay on MKN-45 cells, at most 30% in the assay on NCI-H1299 cells and at most 30% with MIA-PaCa-2 cells. In the assay on G401 cells, the “% inhibition rate G401” value was “+++ (+++: ≥70%)”.

`CCN(C)c1ccc(-c2cc(C(=O)NCc3c(SC)cc(C)[nH]c3=O)c(C)c3c2OC(C)(C2CCN(CC(F)(F)F)CC2)O3)cn1` (single isomer, unassigned) [Compound 79, 7-(2-(ethyl(methyl)amino)pyridin-5-yl)-2,4-dimethyl-N-((6-methyl-4-(methylthio)-2-oxo-1,2-dihydropyridin-3-yl)methyl)-2-(1-(2,2,2-trifluoroethyl)piperidin-4-yl)benzo[d][1,3]dioxole-5-carboxamide] showed an inhibition at 0.005 µM against EZH2 of 97.1%. The compound also showed an inhibition at 0.01 µM on EZH2 of 99.5%. Also, the inhibition at 1 µM in the assay on Lovo cells was at least 70%; in the assay on SW-13 cells, 30 to 70%; in the assay on MKN-45 cells, 30 to 70%; in the assay with NCI-H1299 cells it was 30 to 70%; in the assay with MIA-PaCa-2 cells, at most 30%. Also, the “% inhibition rate G401” value in the assay on G401 cells is “+++ (+++: ≥70%)”. Moreover, the “Enzyme inhibition % EZH1” value was 71.9% at EZH1 (5nM test substance, 0.005 µM) and 87.4% at EZH1 (10nM test substance, 0.01 µM).
